Data set [1] deals with Mus musculus. As to the kind of experiment: Apparent oral clearance in mouse at 35 mg/kg, po administered as single dose measured at 0.25 to 24 hrs by LC/MS/MS analysis. Format: ADME, organism-based. The settings on record: in vivo.
Data set [2] deals with Mus musculus. The data set can be described thus: AUC (0 to infinity) in mouse at 20 mg/kg, iv or 35 mg/kg, po administered as single dose by LC/MS/MS analysis. The class given is ADME, organism-based. Particulars: in vivo.
For data set [3], the system named is Mus musculus. The data set can be described thus: Cmax in mouse at 35 mg/kg, po administered as single dose measured at 0.25 to 24 hrs by LC/MS/MS analysis. Further details: dose 35 mg/kg, route oral. The settings on record: in vivo. The class given is ADME, organism-based.
In data set [4] the test system is Mus musculus. The data set can be described thus: Half life in mouse at 20 mg/kg, iv or 35 mg/kg, po administered as single dose by LC/MS/MS analysis. Particulars: in vivo. Format: ADME, organism-based.
Data set [5] is described as follows: Apparent volume of distribution during terminal phase in mouse at 35 mg/kg, po administered as single dose measured at 0.25 to 24 hrs by LC/MS/MS analysis. The class given is ADME, organism-based. Particulars: in vivo, read-out: Vz/F.
Data set [6] concerns Mus musculus. The data set can be described thus: Tmax in mouse at 35 mg/kg, po administered as single dose by LC/MS/MS analysis. Format: ADME, organism-based. Particulars: in vivo.
The next data set concerns MDA-MB-231. The data set can be described thus: Cytotoxicity against human MDA-MB-231 cells after 72 hrs by MTT assay. The settings on record: MDA-MB-231, 72 h. Format: functional, cell-based. (Tetrazolium assays rely on reduction of a dye to a coloured formazan, in cell work by metabolically active cells.)
The test system of data set [7] is HT-29. The data set can be described thus: Cytotoxicity against human HT-29 cells after 72 hrs by MTT assay. Particulars: HT-29, 72 h.
Data set [8] concerns A549. The data set can be described thus: Cytotoxicity against human A549 cells after 72 hrs by MTT assay. Format: functional, cell-based. Particulars: A549, 72 h.
Data set [9] is described as follows: Mean residence time (0 to infinity) in mouse at 20 mg/kg, iv or 35 mg/kg, po administered as single dose by LC/MS/MS analysis. Format: ADME, organism-based. The settings on record: in vivo.
Data set [10] in a line: Cytotoxicity against human MKN45 cells after 72 hrs by MTT assay. The settings on record: MKN-45, 72 h.
The next data set deals with PBL. As to the kind of experiment: Cytotoxicity against human PBL cells after 72 hrs by MTT assay. Format: cell-based.
Data set [11] concerns Mus musculus. The data set can be described thus: Toxicity in Balb/c mouse xenografted with human MKN45 cells assessed as change in body weight at 50 mg/kg, po bid for 24 days. The class given is organism-based, MKN-45. Particulars: in vivo, 576 h.
Data set [12] relates to HT-29. As to the kind of experiment: Antitumor activity against human HT-29 cells xenografted in Balb/c mouse assessed as tumor growth inhibition at 50 mg/kg, po bid for 27 days relative to control. Format: functional. Also noted: scale not given: the % may be the effect or the level left. A general note: In xenograft studies the graft and the host belong to different species.

The test system of data set [13] is HT-29. As to the kind of experiment: Potency index, ratio of IC50 for foretinib to IC50 for test compound for cytotoxicity against human HT-29 cells. The class given is functional.
Data set [14] addresses Mast/stem cell growth factor receptor Kit (Homo sapiens, UniProt P10721). The data set can be described thus: Inhibition of c-kit (unknown origin) using poly(glu,Tyr)4:1 as substrate incubated for 30 mins by homogeneous time-resolved fluorescence assay.
Data set [15] is described as follows: Potency index, ratio of IC50 for foretinib to IC50 for test compound for cytotoxicity against human MKN45 cells. Format: functional, MKN-45.
Data set [16] addresses T1, Receptor-type tyrosine-protein kinase FLT3 (Homo sapiens, UniProt P36888).
T1 sequence (P36888 whole entry): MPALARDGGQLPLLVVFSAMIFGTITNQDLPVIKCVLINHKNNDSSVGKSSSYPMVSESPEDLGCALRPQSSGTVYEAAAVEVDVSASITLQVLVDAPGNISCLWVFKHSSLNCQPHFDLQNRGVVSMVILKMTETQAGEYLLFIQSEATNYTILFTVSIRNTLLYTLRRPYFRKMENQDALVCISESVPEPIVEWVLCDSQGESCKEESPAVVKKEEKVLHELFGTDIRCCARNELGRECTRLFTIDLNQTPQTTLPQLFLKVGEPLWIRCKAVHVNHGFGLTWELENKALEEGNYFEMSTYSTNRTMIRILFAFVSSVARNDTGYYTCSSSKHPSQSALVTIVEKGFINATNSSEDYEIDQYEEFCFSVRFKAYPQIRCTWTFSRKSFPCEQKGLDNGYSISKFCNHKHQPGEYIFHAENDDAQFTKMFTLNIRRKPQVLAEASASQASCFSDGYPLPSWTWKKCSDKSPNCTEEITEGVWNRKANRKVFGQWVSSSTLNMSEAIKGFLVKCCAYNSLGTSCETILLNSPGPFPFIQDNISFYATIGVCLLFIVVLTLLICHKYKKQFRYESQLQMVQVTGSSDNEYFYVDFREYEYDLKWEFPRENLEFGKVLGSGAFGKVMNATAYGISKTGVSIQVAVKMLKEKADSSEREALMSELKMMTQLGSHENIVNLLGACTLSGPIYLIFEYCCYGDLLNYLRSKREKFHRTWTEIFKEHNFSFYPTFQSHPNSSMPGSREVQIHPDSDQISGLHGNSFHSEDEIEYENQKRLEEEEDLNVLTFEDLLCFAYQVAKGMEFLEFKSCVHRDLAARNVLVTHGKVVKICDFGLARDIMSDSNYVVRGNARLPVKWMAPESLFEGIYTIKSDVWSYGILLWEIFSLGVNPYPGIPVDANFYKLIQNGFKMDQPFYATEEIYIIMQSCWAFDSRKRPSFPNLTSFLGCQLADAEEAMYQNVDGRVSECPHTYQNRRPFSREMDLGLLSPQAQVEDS
As to the kind of experiment: Inhibition of Flt-3 (unknown origin) using poly(glu,Tyr)4:1 as substrate incubated for 30 mins by homogeneous time-resolved fluorescence assay.

For data set [17], the system named is Mus musculus. The data set can be described thus: Toxicity in Balb/c mouse xenografted with human HT-29 cells assessed as change in body weight at 50 mg/kg, po bid for 27 days. The class given is organism-based. Particulars: in vivo, 648 h.
Data set [18] addresses Hepatocyte growth factor receptor (Homo sapiens, UniProt P08581). As to the kind of experiment: Inhibition of c-Met kinase (unknown origin) using poly(glu,Tyr)4:1 as substrate incubated for 30 mins by homogeneous time-resolved fluorescence assay.
Data set [19] concerns the target Platelet-derived growth factor receptor alpha (Homo sapiens, UniProt P16234). The data set can be described thus: Inhibition of PDGFR-alpha (unknown origin) using poly(glu,Tyr)4:1 as substrate incubated for 30 mins by homogeneous time-resolved fluorescence assay.
The target in data set [20] is Vascular endothelial growth factor receptor 2 (Homo sapiens, UniProt P35968). The data set can be described thus: Inhibition of KDR (unknown origin) using poly(glu,Tyr)4:1 as substrate incubated for 30 mins by homogeneous time-resolved fluorescence assay.
Vascular endothelial growth factor receptor 2, sequence (P35968 whole entry): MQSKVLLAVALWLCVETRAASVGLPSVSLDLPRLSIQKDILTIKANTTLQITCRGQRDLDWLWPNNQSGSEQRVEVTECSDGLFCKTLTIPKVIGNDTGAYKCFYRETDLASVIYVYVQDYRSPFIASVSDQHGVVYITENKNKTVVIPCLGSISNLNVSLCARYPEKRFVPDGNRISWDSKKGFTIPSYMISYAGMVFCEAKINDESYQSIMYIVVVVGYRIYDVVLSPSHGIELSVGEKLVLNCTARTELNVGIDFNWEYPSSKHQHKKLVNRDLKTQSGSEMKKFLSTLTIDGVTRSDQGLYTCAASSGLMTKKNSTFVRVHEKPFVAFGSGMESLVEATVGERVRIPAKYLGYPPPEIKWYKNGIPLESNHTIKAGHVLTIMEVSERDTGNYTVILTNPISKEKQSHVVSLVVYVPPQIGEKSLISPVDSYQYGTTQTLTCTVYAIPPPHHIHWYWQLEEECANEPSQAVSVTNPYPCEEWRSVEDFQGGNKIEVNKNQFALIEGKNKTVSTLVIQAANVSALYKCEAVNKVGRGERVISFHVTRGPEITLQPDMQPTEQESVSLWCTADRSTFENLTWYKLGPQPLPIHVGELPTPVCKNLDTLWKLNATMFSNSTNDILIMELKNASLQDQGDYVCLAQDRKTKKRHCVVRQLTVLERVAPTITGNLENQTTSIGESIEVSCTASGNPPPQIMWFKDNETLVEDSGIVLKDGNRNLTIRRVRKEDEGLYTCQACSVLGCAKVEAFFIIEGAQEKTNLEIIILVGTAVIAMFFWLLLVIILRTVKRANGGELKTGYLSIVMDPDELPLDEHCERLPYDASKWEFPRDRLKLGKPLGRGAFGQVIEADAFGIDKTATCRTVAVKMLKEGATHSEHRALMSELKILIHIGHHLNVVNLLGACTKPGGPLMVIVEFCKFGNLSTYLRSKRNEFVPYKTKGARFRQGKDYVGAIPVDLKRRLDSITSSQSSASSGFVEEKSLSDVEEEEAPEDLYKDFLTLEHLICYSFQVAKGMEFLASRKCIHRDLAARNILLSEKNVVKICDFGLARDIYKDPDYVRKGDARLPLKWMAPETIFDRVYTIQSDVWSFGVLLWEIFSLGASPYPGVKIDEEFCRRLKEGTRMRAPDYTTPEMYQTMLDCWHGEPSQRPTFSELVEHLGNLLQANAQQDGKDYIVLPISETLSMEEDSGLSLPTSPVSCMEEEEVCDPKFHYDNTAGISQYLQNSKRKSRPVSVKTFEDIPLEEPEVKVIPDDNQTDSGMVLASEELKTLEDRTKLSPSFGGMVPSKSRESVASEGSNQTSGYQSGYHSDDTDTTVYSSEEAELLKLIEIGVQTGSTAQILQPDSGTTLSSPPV
Data set [21] addresses Macrophage-stimulating protein receptor (Homo sapiens, UniProt Q04912). As to the kind of experiment: Inhibition of Ron (unknown origin) using poly(glu,Tyr)4:1 as substrate incubated for 30 mins by homogeneous time-resolved fluorescence assay.
Data set [22] has as its target Epidermal growth factor receptor (Homo sapiens, UniProt P00533). As to the kind of experiment: Inhibition of EGFR (unknown origin) using poly(glu,Tyr)4:1 as substrate incubated for 30 mins by homogeneous time-resolved fluorescence assay.
The nature of data set [23]: Antitumor activity against human MKN45 cells xenografted in Balb/c mouse assessed as tumor growth inhibition at 50 mg/kg, po bid for 24 days relative to control. Format: functional, MKN-45. Also noted: scale not given: the % may be the effect or the level left.
For data set [24], the system named is A549. The data set can be described thus: Potency index, ratio of IC50 for foretinib to IC50 for test compound for cytotoxicity against human A549 cells. Format: functional.

Platelet-derived growth factor receptor alpha, sequence (P16234 whole entry): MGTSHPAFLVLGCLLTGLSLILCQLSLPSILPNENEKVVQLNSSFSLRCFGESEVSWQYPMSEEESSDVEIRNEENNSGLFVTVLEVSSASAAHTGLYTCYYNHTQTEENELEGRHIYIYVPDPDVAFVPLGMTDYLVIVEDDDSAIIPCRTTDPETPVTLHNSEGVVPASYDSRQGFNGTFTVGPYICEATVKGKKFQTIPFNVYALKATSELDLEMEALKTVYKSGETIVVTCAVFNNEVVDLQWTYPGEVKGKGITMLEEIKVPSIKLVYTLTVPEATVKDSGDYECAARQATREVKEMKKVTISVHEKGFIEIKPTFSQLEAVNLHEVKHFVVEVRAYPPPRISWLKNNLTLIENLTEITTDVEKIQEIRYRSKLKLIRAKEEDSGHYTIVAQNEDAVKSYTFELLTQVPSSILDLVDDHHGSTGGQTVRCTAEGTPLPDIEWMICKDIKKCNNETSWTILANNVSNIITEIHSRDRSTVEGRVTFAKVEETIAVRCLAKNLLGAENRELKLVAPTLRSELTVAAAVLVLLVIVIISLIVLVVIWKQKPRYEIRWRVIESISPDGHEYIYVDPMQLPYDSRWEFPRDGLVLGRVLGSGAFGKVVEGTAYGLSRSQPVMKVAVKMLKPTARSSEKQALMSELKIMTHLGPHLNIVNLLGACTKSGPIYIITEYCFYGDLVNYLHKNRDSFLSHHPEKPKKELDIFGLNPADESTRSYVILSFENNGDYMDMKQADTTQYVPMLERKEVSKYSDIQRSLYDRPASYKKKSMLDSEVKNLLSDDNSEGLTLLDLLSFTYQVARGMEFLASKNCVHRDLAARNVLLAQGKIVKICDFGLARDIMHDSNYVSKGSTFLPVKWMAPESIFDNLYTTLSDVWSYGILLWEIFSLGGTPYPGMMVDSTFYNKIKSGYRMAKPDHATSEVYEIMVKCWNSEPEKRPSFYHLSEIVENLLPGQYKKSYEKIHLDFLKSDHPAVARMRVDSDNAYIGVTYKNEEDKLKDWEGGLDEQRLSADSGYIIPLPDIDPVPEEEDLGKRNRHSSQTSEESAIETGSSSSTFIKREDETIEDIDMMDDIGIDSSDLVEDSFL
Epidermal growth factor receptor, sequence (P00533 whole entry): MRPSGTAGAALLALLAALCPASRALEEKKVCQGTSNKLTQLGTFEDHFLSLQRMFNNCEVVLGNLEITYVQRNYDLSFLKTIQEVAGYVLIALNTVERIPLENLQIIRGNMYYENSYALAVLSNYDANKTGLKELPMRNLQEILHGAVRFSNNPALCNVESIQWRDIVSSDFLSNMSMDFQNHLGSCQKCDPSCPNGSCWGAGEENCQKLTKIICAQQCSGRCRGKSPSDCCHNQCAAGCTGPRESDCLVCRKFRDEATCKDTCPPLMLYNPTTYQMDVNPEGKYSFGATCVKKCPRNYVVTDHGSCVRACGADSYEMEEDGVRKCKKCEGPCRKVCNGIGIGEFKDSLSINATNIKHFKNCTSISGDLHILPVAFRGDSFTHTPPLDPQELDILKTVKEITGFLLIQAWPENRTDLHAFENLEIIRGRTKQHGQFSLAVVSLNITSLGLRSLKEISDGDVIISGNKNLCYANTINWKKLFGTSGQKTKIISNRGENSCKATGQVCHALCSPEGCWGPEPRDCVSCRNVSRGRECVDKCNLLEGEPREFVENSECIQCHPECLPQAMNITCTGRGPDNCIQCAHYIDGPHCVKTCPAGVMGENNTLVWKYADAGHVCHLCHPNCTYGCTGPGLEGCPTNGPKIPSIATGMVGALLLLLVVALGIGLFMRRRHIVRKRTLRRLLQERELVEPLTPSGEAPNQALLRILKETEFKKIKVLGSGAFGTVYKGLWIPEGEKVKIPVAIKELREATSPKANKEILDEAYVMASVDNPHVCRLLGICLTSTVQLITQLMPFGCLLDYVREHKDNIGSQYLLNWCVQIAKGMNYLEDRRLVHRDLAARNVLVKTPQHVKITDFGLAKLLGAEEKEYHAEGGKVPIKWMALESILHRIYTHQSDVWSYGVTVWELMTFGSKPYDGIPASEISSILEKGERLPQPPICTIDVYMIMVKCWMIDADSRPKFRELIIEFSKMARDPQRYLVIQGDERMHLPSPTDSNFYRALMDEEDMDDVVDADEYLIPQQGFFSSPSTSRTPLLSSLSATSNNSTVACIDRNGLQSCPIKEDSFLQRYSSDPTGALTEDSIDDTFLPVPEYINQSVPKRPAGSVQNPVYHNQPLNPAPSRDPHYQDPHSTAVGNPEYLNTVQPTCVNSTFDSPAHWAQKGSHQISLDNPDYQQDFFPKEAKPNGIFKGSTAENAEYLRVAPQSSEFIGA
Mast/stem cell growth factor receptor Kit, sequence (P10721 whole entry): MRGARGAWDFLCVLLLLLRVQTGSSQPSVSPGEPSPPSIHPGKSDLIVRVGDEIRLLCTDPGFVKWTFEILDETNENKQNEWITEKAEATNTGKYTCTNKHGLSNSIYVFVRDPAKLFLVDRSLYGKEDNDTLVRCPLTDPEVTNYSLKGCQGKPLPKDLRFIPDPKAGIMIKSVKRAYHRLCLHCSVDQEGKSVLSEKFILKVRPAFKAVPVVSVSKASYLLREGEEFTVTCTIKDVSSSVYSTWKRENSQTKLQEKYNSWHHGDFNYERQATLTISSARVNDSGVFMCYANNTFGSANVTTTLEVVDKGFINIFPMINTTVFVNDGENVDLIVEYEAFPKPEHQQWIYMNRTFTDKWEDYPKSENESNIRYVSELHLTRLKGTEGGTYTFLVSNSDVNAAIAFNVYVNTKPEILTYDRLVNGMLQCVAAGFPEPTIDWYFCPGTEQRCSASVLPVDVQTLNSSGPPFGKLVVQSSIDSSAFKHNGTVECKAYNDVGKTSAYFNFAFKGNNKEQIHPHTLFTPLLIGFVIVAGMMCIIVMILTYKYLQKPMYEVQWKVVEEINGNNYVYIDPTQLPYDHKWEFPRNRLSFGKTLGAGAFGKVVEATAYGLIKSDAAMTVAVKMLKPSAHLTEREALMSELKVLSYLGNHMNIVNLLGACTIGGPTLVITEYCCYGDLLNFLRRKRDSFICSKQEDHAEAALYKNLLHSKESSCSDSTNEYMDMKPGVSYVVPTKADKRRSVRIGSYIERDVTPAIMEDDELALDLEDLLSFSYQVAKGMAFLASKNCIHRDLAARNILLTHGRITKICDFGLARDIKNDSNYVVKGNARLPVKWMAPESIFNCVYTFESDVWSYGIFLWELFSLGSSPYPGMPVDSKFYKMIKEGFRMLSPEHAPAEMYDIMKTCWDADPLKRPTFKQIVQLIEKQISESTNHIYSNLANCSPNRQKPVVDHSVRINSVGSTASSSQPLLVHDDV

`COc1cc2c(Oc3ccc(NC(=O)N/N=C/c4ccc(F)cc4Cl)cc3F)ccnc2cc1OCCCN1CCCCC1`: the CL/F in the data set on Mus musculus [1] was determined as 1334 mL/min/kg. In the data set with Mus musculus [2], this molecule showed an AUC of 910 ng·h/mL. For the same molecule, in the data set with Mus musculus [3], the Cmax is 78 ng/mL. The t1/2 with Mus musculus [4] turned out to be 3.3 h. The Vd/F in data set [5] came to 371 L/kg. Besides, the Tmax with Mus musculus [6] stood at 0.75 h. The 50% inhibitory concentration (IC50) with MDA-MB-231 is 790 nM; with HT-29 [7] it was 260 nM; in the data set with A549 [8] it was 130 nM; in data set [10] it was 270 nM. For the same molecule, in data set [9], the MRT inf worked out at 13.2 h.
As for `COc1cc2c(Oc3ccc(NC(=S)N/N=C/c4ccccc4)cc3F)ccnc2cc1OCCCN1CCCCC1`, the AUC in the data set on Mus musculus [2] worked out at 7340 ng·h/mL. The same molecule came in with a Cmax in the data set with Mus musculus [3] of 87 ng/mL. This molecule yielded a t1/2 with Mus musculus [4] of 13.48 h. In addition, the Vd/F in data set [5] came to 107 L/kg. The Tmax in the data set with Mus musculus [6] came to 12 h. The 50% inhibitory concentration (IC50) in the data set on MDA-MB-231 is 1200 nM; in the data set with HT-29 [7], 210 nM; in the data set with A549 [8], 330 nM; in the data set with PBL it was 78400 nM; in [10], 710 nM. Moreover, the mean residence time MRT inf in data set [9] was determined as 24.3 h.
On to `C=CCc1cccc(/C=N/NC(=O)Nc2ccc(Oc3ccnc4cc(OCCCN5CCCCC5)c(OC)cc34)c(F)c2)c1O`, for which the Activity result in the data set on Mus musculus [11] is on record as “Non-toxic”; with HT-29 [12], 65.86%; in the data set with Mus musculus [17], “Non-toxic”; in data set [23], 70.18%. In the data set on Mus musculus [2], this molecule displayed an AUC of 16500 ng·h/mL. Besides, the Cmax with Mus musculus [3] was determined as 680 ng/mL. Moreover, the t1/2 with Mus musculus [4] is 13.75 h. For the same molecule, the figures for the “Ratio IC50” value (in the data set with HT-29 [13]; in [15]; in the data set on A549 [24]) were 9.6, 1.7 and 15.4, respectively. For the same molecule, the IC50 in [14] is 162 nM; in data set [16] it was 367 nM; in data set [18], 1.54 nM; in data set [19], 212 nM; in data set [20], 210 nM; in data set [21] it was 14.5 nM. The IC50 with MDA-MB-231 is 440 nM; in the data set on HT-29 [7] it was 27 nM; in the data set on A549 [8], 11 nM; in data set [22], > 100000 nM; in the data set with PBL, 107000 nM; in data set [10], 39 nM. The Vd/F in data set [5] was 43.9 L/kg. For the same molecule, in the data set with Mus musculus [6], the Tmax was 6 h. The MRT inf in data set [9] turned out to be 23.4 h.
For `COc1cc2c(Oc3ccc(NC(=O)C4(C(=O)Nc5ccc(F)cc5)CC4)cc3F)ccnc2cc1OCCCN1CCOCC1` [FORETINIB], the Activity entry in the data set with Mus musculus [11] was “Non-toxic”; in the data set on HT-29 [12], 73.68%; in the data set with Mus musculus [17], “Non-toxic”; in data set [23], 78.23%.
With `COc1cc2c(Oc3ccc(/C=N/NC(=O)Nc4ccc(F)cc4Br)cc3F)ccnc2cc1OCCCN1CCCCC1`, the AUC with Mus musculus [2] came to 1210 ng·h/mL. This molecule came in with a Cmax in the data set with Mus musculus [3] of 73 ng/mL. Besides, in the data set on Mus musculus [4], the t1/2 amounted to 5.07 h. Moreover, in [5], the Vd/F worked out at 346 L/kg. Also, the Tmax with Mus musculus [6] is 7.33 h. For the same molecule, the concentration for half-maximal inhibition (IC50) with MDA-MB-231 amounted to 1000 nM; in the data set with HT-29 [7], 110 nM; with A549 [8] it was 98 nM; in the data set on PBL, 36400 nM; in data set [10], 140 nM. The molecule further showed an MRT inf in [9] of 14.8 h.

For orientation: CL/F means clearance divided by bioavailability, as obtained after extravascular dosing. What is called AUC is concentration integrated over time. Usually Cmax stands for the peak of the concentration-time curve. In general, Tmax refers to the time at which the peak concentration occurs. The term IC50 denotes the point on the concentration scale where inhibition reaches its midpoint. As a reminder, the MRT inf is a mean duration of stay, worked out from the concentration-time curve.
